Experimental data published in ChEMBL document CHEMBL1139011, “Inhibition of hepatitis B virus (HBV) replication by pyrimidines bearing an acyclic moiety: effect on wild-type and mutant HBV” (J Med Chem, 2006).

How the values were obtained:
[1] = system: Duck hepatitis B virus; test: Inhibition of duck HBV transfected in primary duck hepatocytes; format: functional, organism-based; conditions: Hepatocyte
[2] = system: Hepatitis B virus; test: Inhibition of HBV L180M/ M204V mutant transfected in D88 cell line at 10 ug/mL; format: functional
[3] = system: Hepatitis B virus; test: Inhibition of wild type HBV transfected in human hepatoblastoma 2.2.15 cells at 10 ug/mL; format: functional; conditions: HepG2 2.2.15
[4] = system: Duck hepatitis B virus; test: Inhibition of duck HBV transfected in primary duck hepatocytes at 10 ug/mL; format: functional; conditions: Hepatocyte
[5] = system: Hepatitis B virus; test: Inhibition of HBV L180M/ M204V mutant transfected in D88 cell line; format: functional, organism-based
[6] = system: Hepatitis B virus; test: Inhibition of wild type HBV transfected in human hepatoblastoma 2.2.15 cells; format: functional, organism-based; conditions: HepG2 2.2.15
[7] = system: Hepatitis B virus; test: Inhibition of HBV M204I mutant transfected in B1 cell line at 10 ug/mL; format: functional
[8] = system: HepG2; test: Cytotoxicity against HepG2 cell by MTT assay; format: functional; conditions: Homo sapiens
[9] = system: Vero; test: Cytotoxicity against Vero cell by MTT assay; format: functional; conditions: Chlorocebus sabaeus
[10] = system: Hepatitis B virus; test: Inhibition of HBV M204I mutant transfected in B1 cell line; format: functional, organism-based
[11] = system: West Nile virus; test: Inhibitory activity against West Nile virus; format: functional, organism-based

## O=c1[nH]c(=O)n(COCCO)cc1Cl
[1]
  EC50: 0.4 µM
[2]
  inhibition at 10 µg/mL: 70%
[3]
  inhibition at 10 µg/mL: 82%
[4]
  inhibition at 10 µg/mL: 94%
[5]
  EC50: 4.5 µM
[6]
  EC50: 4.5 µM
[7]
  inhibition at 10 µg/mL: 69%
[8]
  CC50: > 454 µM
[9]
  CC50: > 454 µM
[10]
  EC50: 4.5 µM

## O=c1[nH]c(=O)n(COCCO)cc1C(F)(F)F
[1]
  EC50: 3.9 µM
[2]
  inhibition at 10 µg/mL: 50%
[3]
  inhibition at 10 µg/mL: 55%
[4]
  inhibition at 10 µg/mL: 76%
[5]
  EC50: 39.3 µM
[6]
  EC50: 19.6 µM
[7]
  inhibition at 10 µg/mL: 53%
[8]
  CC50: > 393 µM
[9]
  CC50: > 393 µM
[10]
  EC50: 39.3 µM

## O=c1[nH]c(=O)n(COCCO)cc1I
[1]
  EC50: 32 µM
[4]
  inhibition at 10 µg/mL: 50%
[8]
  CC50: > 320 µM
[9]
  CC50: > 320 µM

## Cc1c(I)c(=O)[nH]c(=O)n1COCCO
[1]
  EC50: 30.6 µM
[2]
  inhibition at 10 µg/mL: 25%
[3]
  inhibition at 10 µg/mL: 53%
[4]
  inhibition at 10 µg/mL: 51%
[6]
  EC50: 30.6 µM
[7]
  inhibition at 10 µg/mL: 30%
[8]
  CC50: > 306 µM
[9]
  CC50: > 306 µM

## O=c1[nH]c(=O)n(COCCO)cc1CO
[1]
  EC50: 47.6 µM
[2]
  inhibition at 10 µg/mL: 30%
[3]
  inhibition at 10 µg/mL: 50%
[4]
  inhibition at 10 µg/mL: 55%
[6]
  EC50: 23.8 µM
[7]
  inhibition at 10 µg/mL: 0%
[8]
  CC50: > 476 µM
[9]
  CC50: > 476 µM

## CCOC(=O)c1cn(COCCO)c(=S)[nH]c1=O
[1]
  EC50: 36.4 µM
[2]
  inhibition at 10 µg/mL: 0%
[3]
  inhibition at 10 µg/mL: 50%
[4]
  inhibition at 10 µg/mL: 53%
[6]
  EC50: 18.2 µM
[7]
  inhibition at 10 µg/mL: 20%
[8]
  CC50: > 364 µM
[9]
  CC50: > 364 µM

## O=c1ccn(COCCO)c(=S)[nH]1
[1]
  EC50: > 49.5 µM
[2]
  inhibition at 10 µg/mL: 0%
[3]
  inhibition at 10 µg/mL: 42%
[4]
  inhibition at 10 µg/mL: 46%
[6]
  EC50: > 49.5 µM
[7]
  inhibition at 10 µg/mL: 30%
[8]
  CC50: > 495 µM
[9]
  CC50: > 495 µM

## Cc1cc(=O)[nH]c(=O)n1COCCO
[1]
  EC50: 25 µM
[2]
  inhibition at 10 µg/mL: 0%
[3]
  inhibition at 10 µg/mL: 55%
[4]
  inhibition at 10 µg/mL: 60%
[6]
  EC50: 25 µM
[7]
  inhibition at 10 µg/mL: 30%
[8]
  CC50: > 500 µM
[9]
  CC50: > 500 µM

## Nc1cn(COCCO)c(=O)[nH]c1=O
[1]
  EC50: 5 µM
[2]
  inhibition at 10 µg/mL: 30%
[3]
  inhibition at 10 µg/mL: 50%
[4]
  inhibition at 10 µg/mL: 65%
[6]
  EC50: 50 µM
[7]
  inhibition at 10 µg/mL: 30%
[8]
  CC50: > 497 µM
[9]
  CC50: > 497 µM

## O=c1[nH]c(=O)n(COCCO)cc1Br
[1]
  EC50: 3.7 µM
[2]
  inhibition at 10 µg/mL: 73%
[3]
  inhibition at 10 µg/mL: 60%
[4]
  inhibition at 10 µg/mL: 89%
[5]
  EC50: 3.7 µM
[6]
  EC50: 18.5 µM
[7]
  inhibition at 10 µg/mL: 67%
[8]
  CC50: > 377 µM
[9]
  CC50: > 377 µM
[10]
  EC50: 18.5 µM

## O=c1[nH]c(=O)n(COCCO)cc1[N+](=O)[O-]
[1]
  EC50: 43.2 µM
[11]
  EC50: > 134 µM
[2]
  inhibition at 10 µg/mL: 0%
[3]
  inhibition at 10 µg/mL: 54%
[4]
  inhibition at 10 µg/mL: 53%
[6]
  EC50: 43.2 µM
[7]
  inhibition at 10 µg/mL: 30%
[8]
  CC50: > 432 µM
[9]
  CC50: > 432 µM

## COC(=O)c1cc(=O)[nH]c(=O)n1COCCO
[1]
  EC50: 40.9 µM
[2]
  inhibition at 10 µg/mL: 0%
[3]
  inhibition at 10 µg/mL: 60%
[4]
  inhibition at 10 µg/mL: 56%
[6]
  EC50: 40.9 µM
[7]
  inhibition at 10 µg/mL: 0%
[8]
  CC50: > 409 µM
[9]
  CC50: > 409 µM

## O=c1cnn(COCCO)c(=O)[nH]1
[1]
  EC50: > 53 µM
[3]
  inhibition at 10 µg/mL: 25%
[4]
  inhibition at 10 µg/mL: 25%
[6]
  EC50: > 53 µM
[8]
  CC50: > 534 µM
[9]
  CC50: > 534 µM

## CCc1cn(COCCO)c(=S)[nH]c1=O
[1]
  EC50: > 47.8 µM
[2]
  inhibition at 10 µg/mL: 40%
[3]
  inhibition at 10 µg/mL: 40%
[4]
  inhibition at 10 µg/mL: 45%
[5]
  EC50: > 47.8 µM
[6]
  EC50: > 47.8 µM
[7]
  inhibition at 10 µg/mL: 20%
[8]
  CC50: > 478 µM
[9]
  CC50: > 478 µM

## Cc1c([N+](=O)[O-])c(=O)[nH]c(=O)n1COCCO
[1]
  EC50: 20.4 µM
[2]
  inhibition at 10 µg/mL: 20%
[3]
  inhibition at 10 µg/mL: 60%
[4]
  inhibition at 10 µg/mL: 68%
[6]
  EC50: 20.4 µM
[7]
  inhibition at 10 µg/mL: 25%
[8]
  CC50: > 408 µM
[9]
  CC50: > 408 µM

## Nc1nc(NC2CC2)c2ncn([C@H]3C=C[C@@H](CO)C3)c2n1 [ABACAVIR]
[2]
  inhibition at 10 µg/mL: 72%
[5]
  EC50: 3.4 µM
[7]
  inhibition at 10 µg/mL: 80%
[10]
  EC50: 3.4 µM

## Nc1ccn([C@@H]2CS[C@H](CO)O2)c(=O)n1 [LAMIVUDINE]
[1]
  EC50: 0.04 µM
[2]
  inhibition at 10 µg/mL: 30%
[3]
  inhibition at 10 µg/mL: 88%
[4]
  inhibition at 10 µg/mL: 96%
[6]
  EC50: 2.1 µM
[7]
  inhibition at 10 µg/mL: 45%
[10]
  EC50: > 44 µM
